This is an account of results in patent publication US9512107B2, “Therapeutically active compositions and their methods of use” (Agios Pharmaceuticals, Inc., priority 2012, dated 2016).

Residue numbers refer to the chain shown, from its start. Read-outs that look alike come from different tables or passages of the source. Where only a bound is given, the exact number is not on record here.

One experiment addresses T1, IDH2 R172K (Homo sapiens, UniProt P48735, R172K).
T1 sequence (P48735 40-452 R172K): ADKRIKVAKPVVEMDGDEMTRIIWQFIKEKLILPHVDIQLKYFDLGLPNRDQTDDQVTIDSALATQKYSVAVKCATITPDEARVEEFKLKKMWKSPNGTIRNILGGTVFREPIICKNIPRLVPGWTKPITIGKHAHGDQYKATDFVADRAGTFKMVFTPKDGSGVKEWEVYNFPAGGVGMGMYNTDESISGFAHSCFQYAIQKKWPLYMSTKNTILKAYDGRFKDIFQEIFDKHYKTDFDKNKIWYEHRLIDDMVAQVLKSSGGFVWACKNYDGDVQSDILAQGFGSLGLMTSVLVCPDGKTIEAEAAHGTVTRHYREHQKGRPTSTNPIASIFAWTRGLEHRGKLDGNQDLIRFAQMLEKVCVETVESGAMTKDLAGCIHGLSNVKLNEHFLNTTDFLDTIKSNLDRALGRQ
Briefly: IDH2 R172K enzymatic assay (NADPH cofactor depletion, diaphorase/resazurin readout). The experiment is classed as biochemical. To be noted: read-out: Enz R172K. The method, then:
Compounds are assayed for IDH2 R172K inhibitory activity through a cofactor depletion assay. […] The reaction is terminated by the addition of a second enzyme, diaphorase, and a corresponding substrate, resazurin. Diaphorase reduces resazurin to the highly fluorescent resorufin with the concomitant oxidation of NADPH to NADP, both halting the IDH2 reaction by depleting the available cofactor pool and facilitating quantitation of the amount of cofactor remaining after a specific time period through quantitative production of an easily detected fluorophore.
The test compound is then incubated for one hour at room temperature with the enzyme; before starting the IDH2 reaction with the addition of 10 μl of substrate mix containing 50 μM NADPH and 6.3 mM α-KG in the buffer described above. After a further one hour of incubation at room temperature, the reaction is halted and the remaining NADPH measured through conversion of resazurin to resorufin by the addition of 25 μl Stop Mix (36 μg/ml diaphorase enzyme and 60 μM resazurin; in buffer).
For orientation: Alamar Blue is a resazurin reagent that responds to reducing activity.

The target in a further experiment is T2, IDH2 R140Q (Homo sapiens, UniProt P48735, R140Q).
T2 sequence (P48735 40-452 R140Q): T1 sequence (P48735 40-452 R172K) with R101Q, K133R
Briefly: IDH2 R140Q enzymatic assay (cofactor depletion, similar format). To be noted: read-out: Enz R140Q. The class given is biochemical.

The subject of experiment [1] is U87MG pLVX-IDH2 R140Q-neo cells. Briefly: U87MG pLVX-IDH2 R140Q-neo cell based assay, 2-HG in media by LC-MS at 48 hours. In short, it runs like this: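 2-HG secreted into the medium was measured by LC-MS after 48 h of compound treatment (0.2% DMSO final) of U87MG pLVX-IDH2 R140Q-neo cells in DMEM/10% FBS. The same wells were assayed at 72 h by CellTiter-Glo luminescence for effects on growth.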

For `COc1ccc(-c2nc(Nc3ccccc3)nc(NC(C)C)n2)cc1` [Compound 116], the IC50 at IDH2 R172K was in the range of 1000 to 10000 nM; on IDH2 R140Q it was 100 to 1000 nM.

Consider `Cc1cccc(C)c1-c1nc(Nc2ccccc2)nc(NC(C)C)n1` [Compound 117], for which the IC50 was 1000 to 10000 nM at IDH2 R172K and 100 to 1000 nM at IDH2 R140Q.

Turning to `CC(C)Nc1nc(Nc2ccc(O)cc2)nc(-c2ccccc2)n1` [Compound 133], the IC50 was more than 10000 nM at IDH2 R172K and 100 to 1000 nM at IDH2 R140Q.

Regarding `CC(C)Nc1nc(NC2CCOCC2)nc(-c2ccccc2)n1` [Compound 137], the IC50 at IDH2 R172K fell in the range of 1000 to 10000 nM; at IDH2 R140Q, 100 to 1000 nM.

Consider `CC(C)Nc1nc(Nc2ccccc2C#N)nc(-c2ccccc2)n1` [Compound 165], for which the IC50 on IDH2 R172K lay within 1000 to 10000 nM; at IDH2 R140Q it was 100 to 1000 nM.

Take `c1ccc(-c2nc(Nc3ccncc3)nc(NC3CC3)n2)cc1` [Compound 217, N^2-cyclopropyl-6-phenyl-N^4-(pyridin-4-yl)-1,3,5-triazine-2,4-diamine]: the IC50 is 1000 to 10000 nM at IDH2 R172K and less than 100 nM at IDH2 R140Q.

Turning to `O=C(Nc1nc(Nc2ccccc2)nc(-c2ccccc2)n1)C1CCCO1` (centres unmarked) [Compound 243, N-(4-phenyl-6-(phenylamino)-1,3,5-triazin-2-yl)tetrahydrofuran-2-carboxamide], the IC50 at IDH2 R172K was 1000 to 10000 nM; at IDH2 R140Q, 100 to 1000 nM.

Take `COC(C)(C)CNc1nc(Nc2ccncc2)nc(-c2ccccc2)n1` [Compound 252, N^2-(2-methoxy-2-methylpropyl)-6-phenyl-N^4-(pyridin-4-yl)-1,3,5-triazine-2,4-diamine]: the IC50 lay within 1000 to 10000 nM on IDH2 R172K and 100 to 1000 nM at IDH2 R140Q.

In the case of `CC(C)Nc1nc(Nc2ccnc(C(F)(F)F)c2)nc(-c2cccc(Cl)n2)n1` [Compound 396, 6-(6-chloropyridin-2-yl)-N^2-isopropyl-N4-(2-(trifluoromethyl)pyridin-4-yl)-1,3,5-triazine-2,4-diamine], the IC50 at IDH2 R140Q was 100 to 1000 nM; in experiment [1] (Homo sapiens, U-87 MG) it was less than 100 nM.

On to `CC(C)Nc1nc(Nc2cccc(S(C)(=O)=O)c2)nc(-c2cccc(C3CC3)n2)n1` [Compound 397, 6-(6-cyclopropylpyridin-2-yl)-N^2-isopropyl-N^4-(3-(methylsulfonyl)phenyl)-1,3,5-triazine-2,4-diamine], for which the IC50 on IDH2 R140Q lay within 100 to 1000 nM; in experiment [1] (Homo sapiens, U-87 MG), 100 to 1000 nM.

With `CC(C)Nc1nc(Nc2cc(F)cc(F)c2)nc(-c2cccc(N)n2)n1` [Compound 398, 6-(6-aminopyridin-2-yl)-N^2-(3,5-difluorophenyl)-N^4-isopropyl-1,3,5-triazine-2,4-diamine], the IC50 on IDH2 R140Q is less than 100 nM; in experiment [1] (Homo sapiens, U-87 MG), less than 100 nM.

As for `CC(C)CNc1nc(Nc2cncc(F)c2)nc(-c2cccc(Cl)n2)n1` [Compound 399, 6-(6-chloropyridin-2-yl)-N^2-(5-fluoropyridin-3-yl)-N^4-isobutyl-1,3,5-triazine-2,4-diamine], the IC50 is 100 to 1000 nM at IDH2 R140Q and less than 100 nM in experiment [1] (Homo sapiens, U-87 MG).

As for `CC(C)Nc1nc(Nc2cccc(S(=O)(=O)N3CCC3)c2)nc(-c2cccc(Cl)n2)n1` [Compound 400, N^2-(3-(azetidin-1-ylsulfonyl)phenyl)-6-(6-chloropyridin-2-yl)-N^4-isopropyl-1,3,5-triazine-2,4-diamine], the IC50 at IDH2 R140Q is 100 to 1000 nM; in experiment [1] (Homo sapiens, U-87 MG) it was less than 100 nM.

Turning to `CC(C)Nc1nc(Nc2cncc(C#N)c2)nc(-c2cccc(C(F)(F)F)n2)n1` [Compound 401, 5-(4-(isopropylamino)-6-(6-(trifluoromethyl)pyridin-2-yl)-1,3,5-triazin-2-ylamino)nicotinonitrile], the IC50 on IDH2 R140Q is 100 to 1000 nM; in experiment [1] (Homo sapiens, U-87 MG), less than 100 nM.

For `Fc1cc(Nc2nc(NCC3CCCO3)nc(-c3cccc(C(F)(F)F)n3)n2)ccn1` (centres unmarked) [Compound 402, N^2-(2-fluoropyridin-4-yl)-N^4-((tetrahydrofuran-2-yl)methyl)-6-(6-(trifluoromethyl)pyridin-2-yl)-1,3,5-triazine-2,4-diamine], the IC50 was 100 to 1000 nM at IDH2 R140Q and less than 100 nM in experiment [1] (Homo sapiens, U-87 MG).

Consider `N#Cc1cc(Nc2nc(NCC3CCCO3)nc(-c3cccc(C(F)(F)F)n3)n2)ccn1` (centres unmarked) [Compound 403, 4-(4-((tetrahydrofuran-2-yl)methylamino)-6-(6-(trifluoromethyl)pyridin-2-yl)-1,3,5-triazin-2-ylamino)picolinonitrile], for which the IC50 at IDH2 R140Q is 100 to 1000 nM; in experiment [1] (Homo sapiens, U-87 MG) it was less than 100 nM.

Take `CC(C)Nc1nc(Nc2ccnc(C#N)c2)nc(-c2cccc(C(F)(F)F)n2)n1` [Compound 404, 4-(4-(isopropylamino)-6-(6-(trifluoromethyl)pyridin-2-yl)-1,3,5-triazin-2-ylamino)picolinonitrile]: the IC50 is 100 to 1000 nM on IDH2 R140Q and less than 100 nM in experiment [1] (Homo sapiens, U-87 MG).

On to `CC(C)(O)CNc1nc(Nc2cncc(C(F)(F)F)c2)nc(-c2cccc(C(F)(F)F)n2)n1` [Compound 406, 2-methyl-1-(4-(6-(trifluoromethyl)pyridin-2-yl)-6-(5-(trifluoromethyl)pyridin-3-ylamino)-1,3,5-triazin-2-ylamino)propan-2-ol], for which the IC50 on IDH2 R140Q is 100 to 1000 nM; in experiment [1] (Homo sapiens, U-87 MG), less than 100 nM.

As to `CC(C)(O)CNc1nc(Nc2cncc(F)c2)nc(-c2cccc(C(F)(F)F)n2)n1` [Compound 407, 1-(4-(5-fluoropyridin-3-ylamino)-6-(6-(trifluoromethyl)pyridin-2-yl)-1,3,5-triazin-2-ylamino)-2-methylpropan-2-ol], the IC50 lay within 100 to 1000 nM at IDH2 R140Q and 100 to 1000 nM in experiment [1] (Homo sapiens, U-87 MG).

Consider `Fc1ccc(Nc2nc(NC3COC3)nc(-c3cccc(Cl)n3)n2)cn1` [Compound 410, 6-(6-chloropyridin-2-yl)-N^2-(6-fluoropyridin-3-yl)-N^4-(oxetan-3-yl)-1,3,5-triazine-2,4-diamine], for which the IC50 is more than 10000 nM at IDH2 R140Q and 100 to 1000 nM in experiment [1] (Homo sapiens, U-87 MG).

With `Fc1cncc(Nc2nc(NC3C4COCC43)nc(-c3cccc(C(F)(F)F)n3)n2)c1` (centres unmarked) [Compound 411, N^2-(3-oxabicyclo[3.1.0]hexan-6-yl)-N^4-(5-fluoropyridin-3-yl)-6-(6-(trifluoromethyl)pyridin-2-yl)-1,3,5-triazine-2,4-diamine], the IC50 was 1000 to 10000 nM on IDH2 R140Q and less than 100 nM in experiment [1] (Homo sapiens, U-87 MG).

For the molecule `O=C(Nc1nc(Nc2ccccc2)nc(-c2ccccc2)n1)c1ccc[nH]1` [Compound 414, 1H-Pyrrole-2-carboxylic acid (4-phenyl-6-phenylamino-[1,3,5]triazin-2-yl)-amide], the IC50 on IDH2 R140Q is 100 to 1000 nM; in experiment [1] (Homo sapiens, U-87 MG), 100 to 1000 nM.

With `COC(=O)c1cc(Nc2nc(NC(C)C)nc(-c3ccccc3)n2)ccn1` [Compound 450, methyl 4-((4-(isopropylamino)-6-phenyl-1,3,5-triazin-2-yl)amino)picolinate], the results for the IC50 (on IDH2 R140Q; in experiment [1]) were 100 to 1000 nM and less than 100 nM, respectively.

Turning to `CC(C)Nc1nc(Nc2ccnc(C(F)(F)F)c2)nc(-c2cc(Cl)cc(C(F)(F)F)c2)n1` [Compound 644, 6-(3-Chloro-5-trifluoromethyl-phenyl)-N-isopropyl-N′-(2-trifluoromethyl-pyridin-4-yl)-[1,3,5]triazine-2,4-diamine], the IC50 on IDH2 R172K was in the range of 1000 to 10000 nM; on IDH2 R140Q, 100 to 1000 nM.

For the molecule `CC(C)Nc1nc(Nc2cccc(S(C)(=O)=O)c2)nc(-c2cc(F)cc(C(F)(F)F)c2)n1` [Compound 660, 6-(3-fluoro-5-(trifluoromethyl)phenyl)-N2-isopropyl-N4-(3-(methylsulfonyl)phenyl)-1,3,5-triazine-2,4-diamine], the IC50 on IDH2 R140Q was in the range of 100 to 1000 nM; in experiment [1] (Homo sapiens, U-87 MG), 1000 to 10000 nM.
